Reference: patent US20240238218A1, “[…] A […] ACTIVE COMPOUND AND METHOD OF PREPARATION THEREOF” (GW Research Limited, priority 2021, published 2024)

Key:
[1] = test system: mouse model of generalised seizure (tonic hind limb extensor convulsions); assay: mini-MEST (maximal electroshock seizure threshold, minimal sample sizes) test in the mouse; settings: 50 mg/kg i.p., 30 min post dose
Procedure: The maximal electroshock seizure threshold (MEST) test is widely utilized preclinically to evaluate pro- or anti-convulsant properties of test compounds (Loscher et al., 1991).
(§1) In the MEST test the ability of a drug to alter the seizure threshold current required to induce hind limb tonic extensor convulsions is measured according to an “up and down” method of shock titration (Kimball et al., 1957). An increase in seizure threshold is indicative of anti-convulsant effect.
(§2) The ability of a test compound to alter the stimulus intensity, expressed as current (mA), required to induce the presence of tonic hind limb extensor convulsions, is assessed in the MEST.
(§3) All animals were weighed at the beginning of the study and randomly assigned to treatment groups based on a mean distribution of body weight across groups.
The first animal within a treatment group was given a shock at the expected or estimated CC50 current. For subsequent animals, the current was lowered or raised depending on the convulsions outcome from the preceding animal in log scale intervals.
(§4) Data generated from each treatment group were used to calculate the CC50±SEM values for the treatment group.
Vehicle: (5% ethanol, 10% solutol in 85% Saline) was prepared as follows: 1 mL of ethanol, 2 mL of solutol were warmed to 60° C., in 17 mL of saline (1:2:17).
The test compound, described herein as Compound I, is as shown as Formula I. Test compound was administered at 50 mg/kg (i.p.) in a 1:2:17 ethanol:solutol:0.9% saline formulation.
(§5) The data for each treatment group were recorded as the number of +'s and 0's at each current level employed and this information is then used to calculate the CC50 value (current required for 50% of the animals to show seizure behaviour)±standard error.
(§6) Test compound effects were also calculated as percentage change in CC50 from the vehicle control group.
(§7) Significant difference between drug-treated animals and controls were assessed according to Litchfield and Wilcoxon (1949).

[2] = test system: mouse model of generalised seizure (tonic hind limb extensor convulsions); assay: Maximal electroshock seizure threshold (MEST) test in the mouse
Procedure: The efficacy of the novel resorcinol according to the compound of Formula I was tested in a mouse model of generalised seizure, the maximal electroshock seizure threshold (MEST) test.
as §1, §2, §3
The first animal within a treatment group was given a shock at the expected or estimated CC50 current. For subsequent animals, the current was lowered or raised depending on the convulsions outcome from the preceding animal, in intervals of 5 mA.
as §4
Vehicle: (5% ethanol, 5% Kolliphor® EL, 90% Saline) was prepared as follows: 2 mL of ethanol, 2 mL of Kolliphor® EL were warmed to 60° C., in 36 mL of saline (1:1:18).
The test compound, described herein as Compound I, is as shown as Formula I. Test compound was administered at 1, 5, 20, 50, 100 and 200 mg/kg (i.p.) in a 1:2:17 ethanol:solutol:0.9% saline formulation.
as §5, §6, §7

[3] = 20 mg/kg i.p., 30 min post dose
[4] = 50 mg/kg i.p., 30 min post dose
[5] = 100 mg/kg i.p., 60 min post dose
[6] = 200 mg/kg i.p., 60 min post dose

With `C=C(C)[C@@H]1CC(O)C(C)=C[C@H]1c1c(O)cc(Br)cc1O` (single isomer, unassigned) [Compound I] as the compound, how does the “CC50 +/− SEM” value [1] read?
The value was over 114 mA.

What about the “tonic hindlimb convulsions in treatment group” value ([1]; 6 animals) of the same compound?
The value was “did not have any convulsions”.

And the “% change from vehicle (CC50)” value ([2]; 1 mg/kg i.p., 15 min post dose)?
Its value is 32%.

And the “CC50 +/− SEM” value ([2]; 1 mg/kg i.p., 15 min post dose)?
Its value is 31.3 ± 1.5 mA.

And the “% change from vehicle (CC50)” value ([2]; 5 mg/kg i.p., 15 min post dose)?
Its value is 45%.

And the “CC50 +/− SEM” value ([2]; 5 mg/kg i.p., 15 min post dose)?
The value was 34.2 ± 1.5 mA.

And the “% change from vehicle (CC50)” value [2, 3]?
The value was 202%.

What about the “CC50 +/− SEM” value [2, 3] of the same compound?
Its value is 71.5 ± 1.0 mA.

What about the “% change from vehicle (CC50)” value [2, 4] of the same compound?
Its value is 650%.

And the “CC50 +/− SEM” value [2, 4]?
The value was 177.5 ± 0.7 mA.

And the “% change from vehicle (CC50)” value [2, 5]?
The value was 1157%.

What about the “CC50 +/− SEM” value [2, 5] of the same compound?
Its value is 297.5 ± 0.7 mA.

What about the “% change from vehicle (CC50)” value [2, 6] of the same compound?
Its value is over 1168%.

And the “CC50 +/− SEM” value [2, 6]?
The value was over 300.0 mA.
